What was measured:
S. aureus Newman [1] = assay: fitness (endpoint OD595 vs no drug) (fraction); higher = more growth
Procedure, shortened: (§1)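 Fitness was measured as bacterial growth in 384-well plates inoculated at OD595 0.01 (30 µl, or 55 µl for S. pneumoniae). Media were TSB, LB Lennox or CY, at 37 °C. OD595 was read every 30 min for 14 h and background-subtracted against the first reading. Fitness is OD595 at the transition into stationary phase divided by the robust mean of no-drug control wells, capped at 1.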

S. pneumoniae D39V [2] = assay: as above
Procedure, shortened: as §1

B. subtilis 168 = assay: Bliss interaction score (quartile over a dose matrix) (fitness difference); higher = more antagonism (negative = synergy)
Procedure, shortened: (§2)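 The Bliss score subtracts expected fitness, the product of the single-drug fitness values, from observed fitness. Fitness is plate-normalised OD595 at entry into stationary phase, relative to the robust no-drug mean and capped at 1, with single-drug fitness inferred from combinations. Summaries are quartiles over technical, biological and donor/recipient replicates.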

S. aureus DSM 20231 = assay: as above
Procedure, shortened: as §2

S. aureus Newman [3] = assay: as above
Procedure, shortened: as §2

S. pneumoniae D39V [4] = assay: as above
Procedure, shortened: as §2
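For Bliss interaction score (quartile over a dose matrix) in this document: first quartile when negative (synergy) and third quartile when positive (antagonism).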

C/C(=C\C(=O)OCCCCCCCCC(=O)O)C[C@@H]1OC[C@H](C[C@@H]2O[C@H]2[C@@H](C)[C@H](C)O)[C@@H](O)[C@H]1O [Pseudomonic acid] + CN[C@@H]1[C@H](O[C@H]2[C@H](O[C@H]3[C@H](O)[C@@H](O)[C@H](N=C(N)N)[C@@H](O)[C@@H]3N=C(N)N)O[C@@H](C)[C@]2(O)C=O)O[C@@H](CO)[C@H](O)[C@H]1O [Streptomycin]
fitness, one replicate
Conditions | first compound 0.03 µg/mL | first compound 0.0313 µg/mL | first compound 0.06 µg/mL | first compound 0.0625 µg/mL | first compound 0.12 µg/mL | first compound 0.125 µg/mL
S. aureus Newman [1], partner 2 µg/mL | – | 0.0148 | – | 0.0368 | – | 0.0312
S. aureus Newman [1], partner 4 µg/mL | – | 0.0183 | – | 0.0224 | – | 0.0173
S. aureus Newman [1], partner 8 µg/mL | – | 0.0145 | – | 0.0198 | – | 0.0269
S. pneumoniae D39V [2], partner 16 µg/mL | 0.545 | – | 0.439 | – | 0.238 | –

fitness, S. pneumoniae D39V [2]
Conditions | first compound 0.03 µg/mL | first compound 0.06 µg/mL | first compound 0.12 µg/mL
partner 2 µg/mL | 0.897 | 0.719 | 0.52
partner 4 µg/mL | 0.903 | 0.708 | 0.491
partner 8 µg/mL | 0.699 | 0.565 | 0.384

Conditions | Bliss interaction score
B. subtilis 168 | 0.0523
S. aureus DSM 20231 | -0.013
S. aureus Newman [3] | -0.0275
S. pneumoniae D39V [4] | -0.178

C/C(=C\C(=O)OCCCCCCCCC(=O)O)C[C@@H]1OC[C@H](C[C@@H]2O[C@H]2[C@@H](C)[C@H](C)O)[C@@H](O)[C@H]1O [Pseudomonic acid] + CN[C@H](CC(C)C)C(=O)N[C@H]1C(=O)N[C@@H](CC(N)=O)C(=O)N[C@H]2C(=O)N[C@H]3C(=O)N[C@H](C(=O)N[C@H](C(=O)O)c4cc(O)cc(O)c4-c4cc3ccc4O)[C@H](O)c3ccc(c(Cl)c3)Oc3cc2cc(c3O[C@@H]2O[C@H](CO)[C@@H](O)[C@H](O)[C@H]2O[C@H]2C[C@](C)(N)[C@H](O)[C@H](C)O2)Oc2ccc(cc2Cl)[C@H]1O [Vancomycin]
fitness, S. aureus Newman [1], one replicate
Conditions | first compound 0.0313 µg/mL | first compound 0.0625 µg/mL | first compound 0.125 µg/mL
partner 0.1875 µg/mL | 0.0232 | 0.0221 | 0.0473
partner 0.375 µg/mL | 0.0206 | 0.0409 | 0.0505
partner 0.75 µg/mL | 0.0349 | 0.053 | 0.0388

fitness, S. pneumoniae D39V [2]
Conditions | partner 0.03125 µg/mL | partner 0.0625 µg/mL | partner 0.125 µg/mL | partner 0.5 µg/mL
first compound 0.03 µg/mL | 0.983 | 0.973 | 0.9 | –
first compound 0.06 µg/mL | 0.873 | 0.865 | – | 0.259
first compound 0.12 µg/mL | 0.641 | 0.611 | – | 0.21

Conditions | Bliss interaction score
B. subtilis 168 | 0.0278
S. aureus DSM 20231 | -0.0086
S. aureus Newman [3] | -0.0276
S. pneumoniae D39V [4] | 0.137

C/C(=C\C(=O)OCCCCCCCCC(=O)O)C[C@@H]1OC[C@H](C[C@@H]2O[C@H]2[C@@H](C)[C@H](C)O)[C@@H](O)[C@H]1O [Pseudomonic acid] + COc1ccc(C[C@H](N)C(=O)N[C@H]2[C@@H](O)[C@H](n3cnc4c(N(C)C)ncnc43)O[C@@H]2CO)cc1 [Puromycin]
fitness, S. aureus Newman [1], one replicate
Conditions | first compound 0.0313 µg/mL | first compound 0.0625 µg/mL | first compound 0.125 µg/mL
partner 0.39 µg/mL | 0.0558 | 0.0476 | 0.0585
partner 0.78 µg/mL | 0.0593 | 0.043 | 0.0499
partner 1.56 µg/mL | 0.054 | 0.0656 | 0.0613

fitness, S. pneumoniae D39V [2]
Conditions | first compound 0.03 µg/mL | first compound 0.06 µg/mL | first compound 0.12 µg/mL
partner 1 µg/mL | 0.901 | 0.774 | 0.556
partner 2 µg/mL | 0.896 | 0.73 | 0.428
partner 4 µg/mL | 0.735 | 0.491 | 0.246

Conditions | Bliss interaction score
B. subtilis 168 | -0.0341
S. aureus DSM 20231 | 0.01
S. aureus Newman [3] | 0.0128
S. pneumoniae D39V [4] | -0.209

C/C(=C\C(=O)OCCCCCCCCC(=O)O)C[C@@H]1OC[C@H](C[C@@H]2O[C@H]2[C@@H](C)[C@H](C)O)[C@@H](O)[C@H]1O [Pseudomonic acid] + Cc1cc(NS(=O)(=O)c2ccc(N)cc2)no1 [Sulfamethoxazol]
fitness, S. aureus Newman [1], one replicate
Conditions | first compound 0.0313 µg/mL | first compound 0.0625 µg/mL | first compound 0.125 µg/mL
partner 1 µg/mL | 0.0339 | 0.0352 | 0.0377
partner 2 µg/mL | 0.0298 | 0.0242 | 0.0254
partner 4 µg/mL | 0.0109 | 0.0216 | 0.0232

fitness, S. pneumoniae D39V [2]
Conditions | first compound 0.03 µg/mL | first compound 0.06 µg/mL | first compound 0.12 µg/mL
partner 1 µg/mL | 0.907 | 0.784 | –
partner 2 µg/mL | 0.896 | 0.776 | –
partner 4 µg/mL | 0.877 | 0.769 | 0.579

Conditions | Bliss interaction score
B. subtilis 168 | -0.0453
S. aureus DSM 20231 | -0.0246
S. aureus Newman [3] | -0.0317
S. pneumoniae D39V [4] | -0.0659

C/C(=C\C(=O)OCCCCCCCCC(=O)O)C[C@@H]1OC[C@H](C[C@@H]2O[C@H]2[C@@H](C)[C@H](C)O)[C@@H](O)[C@H]1O [Pseudomonic acid] + Cn1nnc(-c2ccc(-c3ccc(N4C[C@H](CO)OC4=O)cc3F)cn2)n1 [Tedizolid]
fitness, S. aureus Newman [1], one replicate
Conditions | first compound 0.0313 µg/mL | first compound 0.0625 µg/mL | first compound 0.125 µg/mL
partner 0.0625 µg/mL | 0.0219 | 0.0311 | 0.031
partner 0.125 µg/mL | 0.0244 | 0.0131 | 0.0219
partner 0.25 µg/mL | 0.0038 | 0.0239 | 0.018

fitness, S. pneumoniae D39V [2]
Conditions | partner 0.03125 µg/mL | partner 0.0625 µg/mL | partner 0.125 µg/mL | partner 0.25 µg/mL | partner 0.5 µg/mL
first compound 0.03 µg/mL | 0.963 | 0.965 | 0.82 | 0.777 | –
first compound 0.06 µg/mL | 0.881 | 0.9 | 0.759 | 0.767 | 0.516
first compound 0.12 µg/mL | 0.925 | 0.923 | 0.707 | 0.587 | 0.382

Conditions | Bliss interaction score
B. subtilis 168 | -0.0611
S. aureus DSM 20231 | 0.0061
S. aureus Newman [3] | 0.011
S. pneumoniae D39V [4] | 0.21

CCCCCCCCCC(=O)N[C@H]1[C@H](Oc2c3cc4cc2Oc2ccc(cc2Cl)[C@@H](O[C@@H]2O[C@H](CO)[C@@H](O)[C@H](O)[C@H]2NC(C)=O)[C@@H]2NC(=O)[C@H](NC(=O)[C@@H]4NC(=O)[C@H]4NC(=O)[C@@H](Cc5ccc(c(Cl)c5)O3)NC(=O)[C@H](N)c3ccc(O)c(c3)Oc3cc(O)cc4c3)c3ccc(O)c(c3)-c3c(O[C@H]4O[C@H](CO)[C@@H](O)[C@H](O)[C@@H]4O)cc(O)cc3[C@@H](C(=O)O)NC2=O)O[C@H](CO)[C@@H](O)[C@@H]1O [Teicoplanin] + CN(C)c1cc(NC(=O)CNC(C)(C)C)c(O)c2c1C[C@H]1C[C@H]3[C@H](N(C)C)C(O)=C(C(N)=O)C(=O)[C@@]3(O)C(O)=C1C2=O [Tigecycline]
fitness, S. aureus Newman [1], main component drawn
Conditions | first compound 0.1562 µg/mL | first compound 0.3125 µg/mL | first compound 0.625 µg/mL
partner 0.039 µg/mL | ≥ 1 | 0.98 | ≥ 1
partner 0.078 µg/mL | ≥ 1 | 0.963 | ≥ 1
partner 0.156 µg/mL | ≥ 1 | ≥ 1 | ≥ 1

fitness, S. aureus Newman [1], one replicate, main component drawn
Conditions | first compound 0.62 µg/mL | first compound 1.24 µg/mL | first compound 2.48 µg/mL
partner 0.039 µg/mL | 0.757 | 0.736 | 0.456
partner 0.078 µg/mL | 0.754 | 0.746 | 0.453
partner 0.156 µg/mL | 0.813 | 0.756 | 0.427

main component drawn
Conditions | Bliss interaction score
B. subtilis 168 | 0.123
S. aureus DSM 20231 | 0.108
S. aureus Newman [3] | 0.0513
S. pneumoniae D39V [4] | 0.0619
